From paper PMC10004634 (PLOS ONE, 2023)

Tests used:
RIPK2 = RIPK2 (Homo sapiens, UniProt O43353); test: KinAffinity cell-based binding assay using PBMC; set-up: in a cell-based assay using PBMC (Kd); host or cells: PBMC
TMD8 cells = test: SILAC phosphoproteomic analysis
Description: For differential SILAC encoding, both cells were grown in arginine- and lysine-deficient culture medium containing light (Arg0/Lys0) or heavy (Arg10/Lys8) isotopic forms of L-arginine and L-lysine (SILAC medium). […] For mass spectrometric analysis, phosphopeptide-enriched samples were loaded onto a reversed phase analytical column, resolved by an acetonitrile gradient using a nanoflow HPLC system and directly electrosprayed via a nanoelectrospray ion source into an LTQ-Orbitrap Velos mass spectrometer (Thermo Fisher Scientific). […] A false discovery rate (FDR) of 0.01 was selected for protein and peptide identification, and a posterior error probability of ≤0.1 for each peptide-to-spectral match was required. The resulting list of phosphosites exported from the MaxQuant software was filtered for class-I sites (only serine, threonine, or tyrosine assignments with a localization probability of ≥0.75) [33] and used for all subsequent biostatistical analysis. […] Gaussian regression analysis on the histogram plot of these log2-transformed ratios was performed using Sigmaplot (version 10.0; Systat Software Inc.). The obtained values for the mean and standard deviation across the whole quantitative dataset were used to determine thresholds for significant regulation of at least ±2.5 σ. […] Furthermore, only phosphosites conforming to this criterion and showing consistent regulation in both biological replicates were considered as regulated.

RIPK2, sequence (O43353 whole entry): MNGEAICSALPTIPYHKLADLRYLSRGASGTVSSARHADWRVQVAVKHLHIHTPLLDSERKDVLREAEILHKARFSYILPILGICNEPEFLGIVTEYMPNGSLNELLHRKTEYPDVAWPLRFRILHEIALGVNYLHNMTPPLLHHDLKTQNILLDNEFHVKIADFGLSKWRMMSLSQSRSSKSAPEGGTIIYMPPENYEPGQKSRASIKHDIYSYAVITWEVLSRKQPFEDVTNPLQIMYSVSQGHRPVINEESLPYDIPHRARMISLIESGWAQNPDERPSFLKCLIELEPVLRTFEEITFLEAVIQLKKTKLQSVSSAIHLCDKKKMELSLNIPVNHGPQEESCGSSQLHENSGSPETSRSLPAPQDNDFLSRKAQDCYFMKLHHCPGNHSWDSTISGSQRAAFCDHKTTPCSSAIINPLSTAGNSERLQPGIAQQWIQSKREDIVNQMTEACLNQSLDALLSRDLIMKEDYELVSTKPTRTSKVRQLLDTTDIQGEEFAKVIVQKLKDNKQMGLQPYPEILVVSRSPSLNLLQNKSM

CC#CC(=O)N1CC[C@@H](n2c(=O)n(-c3ccc(Oc4ccccc4)cc3)c3c(N)ncnc32)C1 [Tirabrutinib]
Kd (RIPK2): > 3 µM | reduction of ATF2 phosphorylation on Thr-69 (TMD8 cells; 1 μM, 1 h): approximately 50% | reduction of ATF2 phosphorylation on Thr-71 (TMD8 cells; 1 μM, 1 h): approximately 50% | number of downregulated phosphorylation sites (TMD8 cells; 1 μM, 1 h, ratio <0.679): 138 | number of upregulated phosphorylation sites (TMD8 cells; 1 μM, 1 h, ratio >1.472): 15 | Tirabrutinib/ctrl. rep. 1 (TMD8 cells; AKT1S1 S183): 0.69 | Tirabrutinib/ctrl. rep. 2 (TMD8 cells; AKT1S1 S183): 0.65 | Tirabrutinib/ctrl. rep. 1 (TMD8 cells; AKT1S1 S202): 1.29 | Tirabrutinib/ctrl. rep. 2 (TMD8 cells; AKT1S1 S202): 1.18 | Tirabrutinib/ctrl. rep. 1 (TMD8 cells; AKT1S1 S203): 1.16 | Tirabrutinib/ctrl. rep. 2 (TMD8 cells; AKT1S1 S203): 1.11 | Tirabrutinib/ctrl. rep. 1 (TMD8 cells; AKT1S1 S211): 0.98 | Tirabrutinib/ctrl. rep. 2 (TMD8 cells; AKT1S1 S211): 0.82 | Regulation of Phosphorylation Site (TMD8 cells; AKT1S1 T246): ↓ | Tirabrutinib/ctrl. rep. 1 (TMD8 cells; AKT1S1 T246): 0.61 | Tirabrutinib/ctrl. rep. 2 (TMD8 cells; AKT1S1 T246): 0.51 | Tirabrutinib/ctrl. rep. 1 (TMD8 cells; AKT1 S124): 0.97 | Tirabrutinib/ctrl. rep. 2 (TMD8 cells; AKT1 S124): 1.01 | Tirabrutinib/ctrl. rep. 1 (TMD8 cells; AKT1 S129): 1.07 | Tirabrutinib/ctrl. rep. 2 (TMD8 cells; AKT1 S129): 0.94 | Tirabrutinib/ctrl. rep. 1 (TMD8 cells; AKT2 S126): 0.95 | Tirabrutinib/ctrl. rep. 2 (TMD8 cells; AKT2 S126): 0.95 | Tirabrutinib/ctrl. rep. 1 (TMD8 cells; AKT2 T451): 1.00 | Tirabrutinib/ctrl. rep. 2 (TMD8 cells; AKT2 T451): 0.94 | Tirabrutinib/ctrl. rep. 1 (TMD8 cells; ATF2 S112): 1.07 | Tirabrutinib/ctrl. rep. 2 (TMD8 cells; ATF2 S112): 0.83 | Regulation of Phosphorylation Site (TMD8 cells; ATF2 T69): ↓ | Tirabrutinib/ctrl. rep. 1 (TMD8 cells; ATF2 T69): 0.53 | Tirabrutinib/ctrl. rep. 2 (TMD8 cells; ATF2 T69): 0.53 | Regulation of Phosphorylation Site (TMD8 cells; ATF2 T71): ↓ | Tirabrutinib/ctrl. rep. 1 (TMD8 cells; ATF2 T71): 0.50 | Tirabrutinib/ctrl. rep. 2 (TMD8 cells; ATF2 T71): 0.53 | Tirabrutinib/ctrl. rep. 1 (TMD8 cells; CARD11 S483): 0.72 | Tirabrutinib/ctrl. rep. 2 (TMD8 cells; CARD11 S483): 1.26 | Tirabrutinib/ctrl. rep. 1 (TMD8 cells; CARD11 S529): 0.89 | Tirabrutinib/ctrl. rep. 2 (TMD8 cells; CARD11 S529): 0.90 | Tirabrutinib/ctrl. rep. 2 (TMD8 cells; CARD11 S554): 0.79 | Tirabrutinib/ctrl. rep. 1 (TMD8 cells; CARD11 S610): 0.99 | Tirabrutinib/ctrl. rep. 2 (TMD8 cells; CARD11 S610): 0.96 | Tirabrutinib/ctrl. rep. 1 (TMD8 cells; CARD11 S622): 1.01 | Tirabrutinib/ctrl. rep. 2 (TMD8 cells; CARD11 S622): 1.05 | Tirabrutinib/ctrl. rep. 1 (TMD8 cells; CARD11 S903): 1.34 | Tirabrutinib/ctrl. rep. 2 (TMD8 cells; CARD11 S903): 1.37 | Tirabrutinib/ctrl. rep. 1 (TMD8 cells; CARD11 S942): 0.92 | Tirabrutinib/ctrl. rep. 2 (TMD8 cells; CARD11 S942): 0.78 | Regulation of Phosphorylation Site (TMD8 cells; ELK1 S501): ↓ | Tirabrutinib/ctrl. rep. 1 (TMD8 cells; ELK1 S501): 0.33 | Tirabrutinib/ctrl. rep. 2 (TMD8 cells; ELK1 S501): 0.48 | Regulation of Phosphorylation Site (TMD8 cells; ERF S327): ↓ | Tirabrutinib/ctrl. rep. 1 (TMD8 cells; ERF S327): 0.59 | Tirabrutinib/ctrl. rep. 2 (TMD8 cells; ERF S327): 0.50 | Tirabrutinib/ctrl. rep. 1 (TMD8 cells; ERF T526): 0.85 | Tirabrutinib/ctrl. rep. 2 (TMD8 cells; ERF T526): 0.87 | Regulation of Phosphorylation Site (TMD8 cells; ETV3 S245): ↓ | Tirabrutinib/ctrl. rep. 1 (TMD8 cells; ETV3 S245): 0.30 | Tirabrutinib/ctrl. rep. 2 (TMD8 cells; ETV3 S245): 0.28 | Regulation of Phosphorylation Site (TMD8 cells; ETV3 S250): ↓ | Tirabrutinib/ctrl. rep. 1 (TMD8 cells; ETV3 S250): 0.30 | Tirabrutinib/ctrl. rep. 2 (TMD8 cells; ETV3 S250): 0.28 | Tirabrutinib/ctrl. rep. 1 (TMD8 cells; HSP27 S15): 0.59 | Tirabrutinib/ctrl. rep. 2 (TMD8 cells; HSP27 S15): 1.31 | Tirabrutinib/ctrl. rep. 1 (TMD8 cells; HSP27 S78): 0.67 | Tirabrutinib/ctrl. rep. 2 (TMD8 cells; HSP27 S78): 0.69 | Regulation of Phosphorylation Site (TMD8 cells; HSP27 S82): ↓ | Tirabrutinib/ctrl. rep. 1 (TMD8 cells; HSP27 S82): 0.62 | Tirabrutinib/ctrl. rep. 2 (TMD8 cells; HSP27 S82): 0.60 | Tirabrutinib/ctrl. rep. 1 (TMD8 cells; IKBKG S455): 1.17 | Tirabrutinib/ctrl. rep. 2 (TMD8 cells; IKBKG S455): 0.97 | Regulation of Phosphorylation Site (TMD8 cells; MAPK1 Y187): ↓ | Tirabrutinib/ctrl. rep. 1 (TMD8 cells; MAPK1 Y187): 0.34 | Tirabrutinib/ctrl. rep. 2 (TMD8 cells; MAPK1 Y187): 0.47 | Regulation of Phosphorylation Site (TMD8 cells; MAPK3 Y204): ↓ | Tirabrutinib/ctrl. rep. 1 (TMD8 cells; MAPK3 Y204): 0.26 | Tirabrutinib/ctrl. rep. 2 (TMD8 cells; MAPK3 Y204): 0.42 | Tirabrutinib/ctrl. rep. 1 (TMD8 cells; NHE1 S693): 1.21 | Tirabrutinib/ctrl. rep. 2 (TMD8 cells; NHE1 S693): 1.00 | Regulation of Phosphorylation Site (TMD8 cells; NHE1 S703): ↓ | Tirabrutinib/ctrl. rep. 1 (TMD8 cells; NHE1 S703): 0.55 | Tirabrutinib/ctrl. rep. 2 (TMD8 cells; NHE1 S703): 0.51 | Tirabrutinib/ctrl. rep. 1 (TMD8 cells; NHE1 S785): 1.11 | Tirabrutinib/ctrl. rep. 2 (TMD8 cells; NHE1 S785): 1.29 | Tirabrutinib/ctrl. rep. 1 (TMD8 cells; NHE1 S796): 0.62 | Tirabrutinib/ctrl. rep. 2 (TMD8 cells; NHE1 S796): 0.78 | Tirabrutinib/ctrl. rep. 1 (TMD8 cells; PEA15 S82): 0.88 | Tirabrutinib/ctrl. rep. 2 (TMD8 cells; PEA15 S82): 0.96 | Regulation of Phosphorylation Site (TMD8 cells; PEA15 S137): ↓ | Tirabrutinib/ctrl. rep. 1 (TMD8 cells; PEA15 S137): 0.35 | Tirabrutinib/ctrl. rep. 2 (TMD8 cells; PEA15 S137): 0.29 | Tirabrutinib/ctrl. rep. 1 (TMD8 cells; PIK3AP1 S642): 0.94 | Tirabrutinib/ctrl. rep. 2 (TMD8 cells; PIK3AP1 S642): 1.03 | Tirabrutinib/ctrl. rep. 1 (TMD8 cells; PIK3AP1 S759): 0.83 | Tirabrutinib/ctrl. rep. 2 (TMD8 cells; PIK3AP1 S759): 0.69 | Tirabrutinib/ctrl. rep. 1 (TMD8 cells; PIK3AP1 T151): 1.07 | Tirabrutinib/ctrl. rep. 2 (TMD8 cells; PIK3AP1 T151): 1.02 | Regulation of Phosphorylation Site (TMD8 cells; PIK3AP1 Y570): ↓ | Tirabrutinib/ctrl. rep. 1 (TMD8 cells; PIK3AP1 Y570): 0.51 | Tirabrutinib/ctrl. rep. 2 (TMD8 cells; PIK3AP1 Y570): 0.41 | Tirabrutinib/ctrl. rep. 1 (TMD8 cells; PLCG2 S160): 0.86 | Tirabrutinib/ctrl. rep. 2 (TMD8 cells; PLCG2 S160): 1.09 | Tirabrutinib/ctrl. rep. 1 (TMD8 cells; PLCG2 S443): 0.84 | Tirabrutinib/ctrl. rep. 2 (TMD8 cells; PLCG2 S443): 1.41 | Tirabrutinib/ctrl. rep. 1 (TMD8 cells; PLCG2 Y753): 0.79 | Tirabrutinib/ctrl. rep. 2 (TMD8 cells; PLCG2 Y753): 0.55 | Regulation of Phosphorylation Site (TMD8 cells; PRKCB S241): ↑ | Tirabrutinib/ctrl. rep. 1 (TMD8 cells; PRKCB S241): 3.02 | Tirabrutinib/ctrl. rep. 2 (TMD8 cells; PRKCB S241): 1.76 | Tirabrutinib/ctrl. rep. 1 (TMD8 cells; PRKCB S673): 0.88 | Tirabrutinib/ctrl. rep. 2 (TMD8 cells; PRKCB S673): 0.60 | Tirabrutinib/ctrl. rep. 1 (TMD8 cells; PRKCB T500): 0.71 | Tirabrutinib/ctrl. rep. 2 (TMD8 cells; PRKCB T500): 1.08 | Tirabrutinib/ctrl. rep. 1 (TMD8 cells; PRKCB T641): 1.00 | Tirabrutinib/ctrl. rep. 2 (TMD8 cells; PRKCB T641): 1.01 | Tirabrutinib/ctrl. rep. 1 (TMD8 cells; PRKCB T642): 0.99 | Tirabrutinib/ctrl. rep. 2 (TMD8 cells; PRKCB T642): 1.92 | Tirabrutinib/ctrl. rep. 1 (TMD8 cells; PRKD2 S198): 0.55 | Tirabrutinib/ctrl. rep. 2 (TMD8 cells; PRKD2 S198): 0.69 | Regulation of Phosphorylation Site (TMD8 cells; PRKD2 S206): ↓ | Tirabrutinib/ctrl. rep. 1 (TMD8 cells; PRKD2 S206): 0.32 | Tirabrutinib/ctrl. rep. 2 (TMD8 cells; PRKD2 S206): 0.48 | Regulation of Phosphorylation Site (TMD8 cells; PRKD2 S214): ↓ | Tirabrutinib/ctrl. rep. 1 (TMD8 cells; PRKD2 S214): 0.46 | Tirabrutinib/ctrl. rep. 2 (TMD8 cells; PRKD2 S214): 0.48 | Regulation of Phosphorylation Site (TMD8 cells; PRKD2 S710): ↓ | Tirabrutinib/ctrl. rep. 1 (TMD8 cells; PRKD2 S710): 0.45 | Tirabrutinib/ctrl. rep. 2 (TMD8 cells; PRKD2 S710): 0.56 | Tirabrutinib/ctrl. rep. 1 (TMD8 cells; PRKD3 S31): 0.76 | Tirabrutinib/ctrl. rep. 2 (TMD8 cells; PRKD3 S31): 0.85 | Tirabrutinib/ctrl. rep. 1 (TMD8 cells; PRKD3 S213): 1.40 | Tirabrutinib/ctrl. rep. 2 (TMD8 cells; PRKD3 S213): 1.11 | Tirabrutinib/ctrl. rep. 1 (TMD8 cells; PRKD3 S364): 0.98 | Tirabrutinib/ctrl. rep. 2 (TMD8 cells; PRKD3 S364): 0.97 | Tirabrutinib/ctrl. rep. 1 (TMD8 cells; PRKD3 S395): 0.77 | Tirabrutinib/ctrl. rep. 2 (TMD8 cells; PRKD3 S395): 0.65 | Regulation of Phosphorylation Site (TMD8 cells; PRKD3 S735): ↓ | Tirabrutinib/ctrl. rep. 1 (TMD8 cells; PRKD3 S735): 0.41 | Tirabrutinib/ctrl. rep. 2 (TMD8 cells; PRKD3 S735): 0.43 | Regulation of Phosphorylation Site (TMD8 cells; RAF1 S1055): ↓ | Tirabrutinib/ctrl. rep. 1 (TMD8 cells; RAF1 S1055): 0.61 | Tirabrutinib/ctrl. rep. 2 (TMD8 cells; RAF1 S1055): 0.61 | Tirabrutinib/ctrl. rep. 1 (TMD8 cells; RELA S203): 0.85 | Tirabrutinib/ctrl. rep. 2 (TMD8 cells; RELA S203): 1.23 | Tirabrutinib/ctrl. rep. 1 (TMD8 cells; RELA S238): 0.84 | Tirabrutinib/ctrl. rep. 2 (TMD8 cells; RELA S238): 1.07 | Tirabrutinib/ctrl. rep. 1 (TMD8 cells; RPS6KA1 S230): 0.93 | Tirabrutinib/ctrl. rep. 2 (TMD8 cells; RPS6KA1 S230): 0.89 | Regulation of Phosphorylation Site (TMD8 cells; RPS6KA1 S741): ↓ | Tirabrutinib/ctrl. rep. 1 (TMD8 cells; RPS6KA1 S741): 0.61 | Tirabrutinib/ctrl. rep. 2 (TMD8 cells; RPS6KA1 S741): 0.59 | Tirabrutinib/ctrl. rep. 1 (TMD8 cells; RPS6KA1 T234): 0.93 | Tirabrutinib/ctrl. rep. 2 (TMD8 cells; RPS6KA1 T234): 0.96 | Tirabrutinib/ctrl. rep. 1 (TMD8 cells; TSC2 S1411): 1.07 | Tirabrutinib/ctrl. rep. 2 (TMD8 cells; TSC2 S1411): 1.15 | Tirabrutinib/ctrl. rep. 1 (TMD8 cells; TSC2 S1418): 1.12 | Tirabrutinib/ctrl. rep. 2 (TMD8 cells; TSC2 S1418): 1.10 | Tirabrutinib/ctrl. rep. 1 (TMD8 cells; TSC2 S1799): 1.15 | Tirabrutinib/ctrl. rep. 2 (TMD8 cells; TSC2 S1799): 0.89 | Regulation of Phosphorylation Site (TMD8 cells; YBX1 S102): ↓ | Tirabrutinib/ctrl. rep. 1 (TMD8 cells; YBX1 S102): 0.60 | Tirabrutinib/ctrl. rep. 2 (TMD8 cells; YBX1 S102): 0.46 | Tirabrutinib/ctrl. rep. 1 (TMD8 cells; YBX1 S165): 0.91 | Tirabrutinib/ctrl. rep. 2 (TMD8 cells; YBX1 S165): 0.96 | Tirabrutinib/ctrl. rep. 1 (TMD8 cells; YBX1 S167): 1.07
